Test results: patent US20010023259A1, “Conjugated fatty acids and related compounds” (Natural ASA, priority 1999, published 2001)

Tested on: Spirulina platensis (Arthrospira sp.) PCC8005
Assay: Incubation of fatty acid substrates with S. platensis; fatty acid composition of extracted lipids by GC
Type: cell-based
Details: for 6,9,11 - 18:3 (desaturated metabolite), fatty acid composition of lipids extracted from S. platensis / 9,11 - 18:2 (substrate taken up), fatty acid composition of lipids extracted from S. platensis / Amount, total weight of lipid in extract / linoleic acid 18:2, fatty acid composition of lipids extracted from S. platensis / linolenic acid 18:3 (n-6), fatty acid composition of lipids extracted from S. platensis / oleic acid 18:1, fatty acid composition of lipids extracted from S. platensis / palmitic acid 16:0, fatty acid composition of lipids extracted from S. platensis / palmitoleic acid 16:1, fatty acid composition of lipids extracted from S. platensis / stearic acid 18:0, fatty acid composition of lipids extracted from S. platensis: incubation with added 9-cis,11-trans-octadecadienoic acid
Description: Spirulina platensis (Arthrospira sp.) PCC8005 was grown in Zabrouk's medium in 50 ml batch culture in 100 ml erlenmeyer flasks at 30° C. with illumination of 50 μmol photons m^-2 […]. Cultures were harvested following 5 days growth by centrifugation at 40,000 g in a […] rotor in a Beckman Avanti centrifuge 20 minutes, cooled rotor @4° C. The algal pellet was carefully resuspended in fresh Zabrouk's medium under aseptic conditions. Initial time-course experiments were carried out by resuspending the algal pellet in 50 ml fresh medium, which was then divided into 10 ml aliquots, each containing 0.5 ml of 1.8mM ammonium fatty acid substrate and incubating under the above conditions. Control cultures incubated without linoleate were also set up. […] The algal pellet was washed four times in 50 ml freshly drawn MilliQ water and then freeze dried prior to analyses. In later experiments where bulk material was required for a more detailed analysis of the metabolite produced, 4×50 ml cultures were grown and harvested as above. […] Following this incubation the algal material was pelleted, washed and freeze dried as described above. […] The latter were converted to the picolinyl ester derivatives by the procedure of Balazy and Nies, Biomed. Environ. […] The temperature of both the injector and detector was 250° C. Hydrogen was the carrier gas. The analyses were performed with a column (fused silica capillary) coated with carbowax (Chrompack UK Ltd, London, 30 m×[…] i.d.). The oven temperature was programmed from 170 to 220° C. at 4° C./min.

## CCCCCC#CCC=CCCCCCCCC(=O)O [Crepenynic acid, octadeca-9-en-12-ynoic acid]
96 hours incubation
  C20 homologue formed by chain elongation in the total fatty acids: detected
Substrate added exogenously
  desaturation in position 6 by S. platensis: converted to a dehydro-metabolite
  incorporation into the lipids of S. platensis: taken up

## CCCCCC/C=C/C=C\CCCCCCCC(=O)O [CLA, 9-cis,11-trans-octadecadienoic acid]
After 24 hours
  recovered CLA isomer converted to the desaturated metabolite: 13%
At 24 hrs
  compound taken up from the surrounding medium, share of lipid: 27.8 % of lipid
Conversion of the di-unsaturated compound
  time at which plateau level of the 6,9,11 tri-unsaturated fatty acid is attained: about 72 hours
Extracts incubated with the CLA isomer, 0-96 h
  change of relative proportion of oleate with time: increased four fold
0h
  6,9,11 - 18:3 (desaturated metabolite), fatty acid composition of lipids extracted from S. platensis: 0.0 wt %
  9,11 - 18:2 (substrate taken up), fatty acid composition of lipids extracted from S. platensis: 0.0 wt %
  Amount, total weight of lipid in extract: 85.3 µg
  linoleic acid 18:2, fatty acid composition of lipids extracted from S. platensis: 11.7 wt %
  linolenic acid 18:3 (n-6), fatty acid composition of lipids extracted from S. platensis: 32.2 wt %
  oleic acid 18:1, fatty acid composition of lipids extracted from S. platensis: 4.9 wt %
  palmitic acid 16:0, fatty acid composition of lipids extracted from S. platensis: 42.0 wt %
  palmitoleic acid 16:1, fatty acid composition of lipids extracted from S. platensis: 6.5 wt %
  stearic acid 18:0, fatty acid composition of lipids extracted from S. platensis: 2.6 wt %
24h
  6,9,11 - 18:3 (desaturated metabolite), fatty acid composition of lipids extracted from S. platensis: 4.1 wt %
  9,11 - 18:2 (substrate taken up), fatty acid composition of lipids extracted from S. platensis: 27.8 wt %
  Amount, total weight of lipid in extract: 170.3 µg
  linoleic acid 18:2, fatty acid composition of lipids extracted from S. platensis: 8.2 wt %
  linolenic acid 18:3 (n-6), fatty acid composition of lipids extracted from S. platensis: 19.5 wt %
  oleic acid 18:1, fatty acid composition of lipids extracted from S. platensis: 4.0 wt %
  palmitic acid 16:0, fatty acid composition of lipids extracted from S. platensis: 30.7 wt %
  palmitoleic acid 16:1, fatty acid composition of lipids extracted from S. platensis: 4.7 wt %
  stearic acid 18:0, fatty acid composition of lipids extracted from S. platensis: 0.9 wt %
48h
  6,9,11 - 18:3 (desaturated metabolite), fatty acid composition of lipids extracted from S. platensis: 5.1 wt %
  9,11 - 18:2 (substrate taken up), fatty acid composition of lipids extracted from S. platensis: 21.2 wt %
  Amount, total weight of lipid in extract: 188.3 µg
  linoleic acid 18:2, fatty acid composition of lipids extracted from S. platensis: 6.9 wt %
  linolenic acid 18:3 (n-6), fatty acid composition of lipids extracted from S. platensis: 19.0 wt %
  oleic acid 18:1, fatty acid composition of lipids extracted from S. platensis: 8.6 wt %
  palmitic acid 16:0, fatty acid composition of lipids extracted from S. platensis: 32.7 wt %
  palmitoleic acid 16:1, fatty acid composition of lipids extracted from S. platensis: 5.3 wt %
  stearic acid 18:0, fatty acid composition of lipids extracted from S. platensis: 1.2 wt %
72h
  6,9,11 - 18:3 (desaturated metabolite), fatty acid composition of lipids extracted from S. platensis: 5.7 wt %
  9,11 - 18:2 (substrate taken up), fatty acid composition of lipids extracted from S. platensis: 16.2 wt %
  Amount, total weight of lipid in extract: 211.8 µg
  linoleic acid 18:2, fatty acid composition of lipids extracted from S. platensis: 4.9 wt %
  linolenic acid 18:3 (n-6), fatty acid composition of lipids extracted from S. platensis: 16.5 wt %
  oleic acid 18:1, fatty acid composition of lipids extracted from S. platensis: 15.4 wt %
  palmitic acid 16:0, fatty acid composition of lipids extracted from S. platensis: 34.3 wt %
  palmitoleic acid 16:1, fatty acid composition of lipids extracted from S. platensis: 5.4 wt %
  stearic acid 18:0, fatty acid composition of lipids extracted from S. platensis: 1.7 wt %
96h
  6,9,11 - 18:3 (desaturated metabolite), fatty acid composition of lipids extracted from S. platensis: 5.8 wt %
  9,11 - 18:2 (substrate taken up), fatty acid composition of lipids extracted from S. platensis: 10.5 wt %
  Amount, total weight of lipid in extract: 166.2 µg
  linoleic acid 18:2, fatty acid composition of lipids extracted from S. platensis: 3.9 wt %
  linolenic acid 18:3 (n-6), fatty acid composition of lipids extracted from S. platensis: 15.1 wt %
  oleic acid 18:1, fatty acid composition of lipids extracted from S. platensis: 21.6 wt %
  palmitic acid 16:0, fatty acid composition of lipids extracted from S. platensis: 35.4 wt %
  palmitoleic acid 16:1, fatty acid composition of lipids extracted from S. platensis: 5.7 wt %
  stearic acid 18:0, fatty acid composition of lipids extracted from S. platensis: 1.9 wt %
Substrate added exogenously
  incorporation into the lipids of S. platensis: rapidly take up the compound

## CCCCC/C=C\C=C\CCCCCCCCC(=O)O [10-t,12-c-octadecadienoic acid]
96 hours incubation
  metabolite formed, share of the conjugated acids: 18 % of the conjugated acids
96 hours incubation, GC retention time expected for 6-c,10-t,12-c-octadecatrienoic acid
  metabolite formed, share of the total fatty acids: 6.4 % of the total fatty acids
Substrate added exogenously
  incorporation into the lipids of S. platensis: rapidly incorporated
